Patent publication US20250092353A1, “COMMENSAL FUNGUS AND USES THEREOF” (YEDA RESEARCH AND DEVELOPMENT CO. LTD., priority 2022, published 2025)

Key:
[1] = tested on: neutrophils, classical and non-classical monocytes; assay: Flow cytometric analysis of myeloid blood cell compartment of colonized mice; type: in vivo; conditions: Abx-treated mice, 4 weeks colonized
Source text: (§1) FIGS. 4A-4F include graphs showing humoral and cellular immune responses to C. albicans and Kazachstania sp. (4A) Flow cytometric analysis of myeloid blood cell compartment of mice 4 weeks colonized with C. albicans or K. weizmannii. Neutrophils, classical and non-classical monocytes are defined as Ly6G+CD 115−, Ly6C+CD 115+, and […], respectively. N=8-21 mice, pooled from 3 independent experiments. Gating strategy, left, results, right. (4B) Flow cytometric analysis of humoral anti-fungal reactivity. Gating strategy for the determination of serum immunoglobulin binding to cultured C. albicans or K. weizmannii. (4C) Anti-C. albicans and K. weizmannii IgA and IgG serum reactivity of single-colonized animals, measured as shown in (4B). Note that most but not all animals harbor cross-reactive sera. (4D) Representative gating strategy of RORγt+ T cells (left); percentage of RORγt+ cells among TCRβ CD4+ T cells 5 weeks upon C. albicans or K. weizmannii colonization, n=3-5 mice per group, 3 independent experiments (right). […] EC damage was assessed using the LDH assay as described in (Allert et al., 2018). […]
(§2) Methods adhered to published guidelines (Cossarizza et al., 2019). Flow cytometry samples were recorded on BD LSR Fortessa 4 lasers or Cytek Aurora followed by data analysis using the FlowJo software (Treestar).

[2] = tested on: Th17 cells; assay: RORγt+ Th17 cells in mesenteric and peripheral lymph nodes of colonized mice; type: in vivo; conditions: 5 weeks colonization
Source text: as §1, §2

[3] = tested on: C2BBe1 cells; assay: Epithelial cell co-culture cytotoxicity (LDH assay); type: cell-based
Experimental: Quantification of cytotoxicity (LDH assay). Differentiated C2BBe1 cells in 96-well plates were infected for a defined time period with 10^4 C. albicans, S. cerevisiae and K. weizmannii. cells/well. After coincubation, epithelial damage was quantified by measuring LDH release using a cytotoxicity detection kit (Roche) according to the manufacturer's instructions.

Substance: Kazachstania weizmannii [K. weizmannii]
- abundance of blood granulocytes and monocytes [1]: no significantly altered abundance of granulocytes, classical or non-classical monocytes
- Th17 cell expansion [2]: no Th17 cell expansion was observed
- protection from C. albicans-induced EC damage ([3]; co-infection with K. weizmannii and C. albicans): did not prevent EC damage
- EC damage / viability (LDH release) ([3]; single fungus co-culture): did not affect EC viability
